Data reported in patent US20120029187A1, “HALOALKYLSULFONANILIDE DERIVATIVE” (Nissan Chemical Industries, Ltd., priority 2009, published 2012).

What was measured:
Type in all cases: in vivo
barnyardgrass [1] = test: Test Example 1: herbicidal effects in preemergence treatment under submerged conditions; settings: dose 2.52 g/a
Procedure, shortened: (§1)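 Submerged conditions, 4 cm water over alluvial soil. Weeds sown and 2.5-leaf rice transplanted; compound applied preemergence to water surface, doses in g per are. Greenhouse, 25 to 30° C., three weeks, then 0–5 mortality rating.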

bulrush [2] = test: as above; settings: dose 2.52 g/a
Procedure, shortened: as §1

ducksalad [3] = test: as above; settings: dose 2.52 g/a
Procedure, shortened: as §1

transplanted rice = test: Test Example 1: preemergence treatment under submerged conditions, effect on crop; settings: dose 2.52 g/a
Procedure, shortened: as §1

barnyardgrass [4] = test: Test Example 2: herbicidal effects during the vegetation period under submerged conditions; settings: treatment during the vegetation period under submerged conditions; dose 2.52 g/a
Procedure, shortened: (§2)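 Barnyardgrass, bulrush and ducksalad were co-sown in alluvial soil flooded to 4 cm and grown in a greenhouse at 25 to 30° C. At the 1- or 2-leaf stage, water-diluted emulsifiable concentrates went onto the water surface at set doses (g/a). Herbicidal effect was scored three weeks later on a graded scale.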

bulrush [5] = test: as above; settings: treatment during the vegetation period under submerged conditions; dose 2.52 g/a
Procedure, shortened: as §2

ducksalad [6] = test: as above; settings: treatment during the vegetation period under submerged conditions; dose 2.52 g/a
Procedure, shortened: as §2

Italian ryegrass [7] = test: Test Example 3: herbicidal effects in soil treatment; settings: dose 3.2 g/a
Procedure, shortened: (§3)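 Seeds were sown in sterilized diluvial soil and covered with about 1.5 cm of soil. Compounds, formulated as emulsifiable concentrates and diluted with water, were sprayed evenly over the soil surface at set doses in g/a. Herbicidal effect was scored on a rating scale three weeks later.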

barnyardgrass [8] = test: as above; settings: dose 3.2 g/a
Procedure, shortened: as §3

beadstraw [9] = test: as above; settings: dose 3.2 g/a
Procedure, shortened: as §3

common chickweed [10] = test: as above; settings: dose 3.2 g/a
Procedure, shortened: as §3

common lambsquater [11] = test: as above; settings: dose 3.2 g/a
Procedure, shortened: as §3

common ragweed [12] = test: as above; settings: dose 3.2 g/a
Procedure, shortened: as §3

giant foxtail [13] = test: as above; settings: dose 3.2 g/a
Procedure, shortened: as §3

large crabgrass [14] = test: as above; settings: dose 3.2 g/a
Procedure, shortened: as §3

posumbu knotweed [15] = test: as above; settings: dose 3.2 g/a
Procedure, shortened: as §3

redroot pigweed [16] = test: as above; settings: dose 3.2 g/a
Procedure, shortened: as §3

velvetleaf [17] = test: as above; settings: dose 3.2 g/a
Procedure, shortened: as §3

water foxtail [18] = test: as above; settings: dose 3.2 g/a
Procedure, shortened: as §3

wild oat [19] = test: as above; settings: dose 3.2 g/a
Procedure, shortened: as §3

Italian ryegrass [20] = test: Test Example 4: herbicidal effect in foliage treatment; settings: dose 3.2 g/a
Procedure, shortened: (§4)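 Seeds were spot-sown in boxes of sterilized diluvial soil and raised in a greenhouse (25 to 30° C) for 14 days before a single foliar application. Compounds were applied as emulsifiable concentrates diluted with water, at predetermined doses in g/a. Injury was graded three weeks post-spray.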

barnyardgrass [21] = test: as above; settings: dose 3.2 g/a
Procedure, shortened: as §4

beadstraw [22] = test: as above; settings: dose 3.2 g/a
Procedure, shortened: as §4

common chickweed [23] = test: as above; settings: dose 3.2 g/a
Procedure, shortened: as §4

common lambsquater [24] = test: as above; settings: dose 3.2 g/a
Procedure, shortened: as §4

common ragweed [25] = test: as above; settings: dose 3.2 g/a
Procedure, shortened: as §4

giant foxtail [26] = test: as above; settings: dose 3.2 g/a
Procedure, shortened: as §4

large crabgrass [27] = test: as above; settings: dose 3.2 g/a
Procedure, shortened: as §4

posumbu knotweed [28] = test: as above; settings: dose 3.2 g/a
Procedure, shortened: as §4

redroot pigweed [29] = test: as above; settings: dose 3.2 g/a
Procedure, shortened: as §4

velvetleaf [30] = test: as above; settings: dose 3.2 g/a
Procedure, shortened: as §4

water foxtail [31] = test: as above; settings: dose 3.2 g/a
Procedure, shortened: as §4

wild oat [32] = test: as above; settings: dose 3.2 g/a
Procedure, shortened: as §4

[33] = three weeks after the application

## CC1(C)OCN(Cc2ccccc2N(S(=O)(=O)C(F)(F)F)S(=O)(=O)C(F)(F)F)C(=O)C1F (stereo not drawn) [II-37]
Barnyardgrass [1]
  A: barnyardgrass, herbicidal effect (evaluation scale 0-5): 5 (mortality of 90% or above (nearly complete death))
Bulrush [2]
  B: bulrush, herbicidal effect (evaluation scale 0-5): 5 (mortality of 90% or above (nearly complete death))
Ducksalad [3]
  C: ducksalad, herbicidal effect (evaluation scale 0-5): 5 (mortality of 90% or above (nearly complete death))
Transplanted rice
  a: transplanted rice, effect on crop (evaluation scale 0-5): 2 (mortality of at least 20% and less than 40%)
Barnyardgrass [4]
  A: barnyardgrass, herbicidal effect (evaluation scale 0-5): 5 (mortality of 90% or above (nearly complete death))
Bulrush [5]
  B: bulrush, herbicidal effect (evaluation scale 0-5): 5 (mortality of 90% or above (nearly complete death))
Ducksalad [6]
  C: ducksalad, herbicidal effect (evaluation scale 0-5): 5 (mortality of 90% or above (nearly complete death))
Italian ryegrass [7]
  H: Italian ryegrass, herbicidal effect (evaluation scale 0-5): 0 (mortality of less than 5% (almost ineffective))
Barnyardgrass [8]
  A: barnyardgrass, herbicidal effect (evaluation scale 0-5): 5 (mortality of 90% or above (nearly complete death))
Beadstraw [9]
  O: beadstraw, herbicidal effect (evaluation scale 0-5): 4 (mortality of at least 70% and less than 90%)
Common chickweed [10]
  N: common chickweed, herbicidal effect (evaluation scale 0-5): 2 (mortality of at least 20% and less than 40%)
Common lambsquater [11]
  L: common lambsquater, herbicidal effect (evaluation scale 0-5): 0 (mortality of less than 5% (almost ineffective))
Common ragweed [12]
  J: common ragweed, herbicidal effect (evaluation scale 0-5): 5 (mortality of 90% or above (nearly complete death))
Giant foxtail [13]
  E: giant foxtail, herbicidal effect (evaluation scale 0-5): 3 (mortality of at least 40% and less than 70%)
Large crabgrass [14]
  D: large crabgrass, herbicidal effect (evaluation scale 0-5): 5 (mortality of 90% or above (nearly complete death))
Posumbu knotweed [15]
  M: posumbu knotweed, herbicidal effect (evaluation scale 0-5): 0 (mortality of less than 5% (almost ineffective))
Redroot pigweed [16]
  K: redroot pigweed, herbicidal effect (evaluation scale 0-5): 3 (mortality of at least 40% and less than 70%)
Velvetleaf [17]
  I: velvetleaf, herbicidal effect (evaluation scale 0-5): 0 (mortality of less than 5% (almost ineffective))
Water foxtail [18]
  G: water foxtail, herbicidal effect (evaluation scale 0-5): 5 (mortality of 90% or above (nearly complete death))
Wild oat [19]
  F: wild oat, herbicidal effect (evaluation scale 0-5): 4 (mortality of at least 70% and less than 90%)
Italian ryegrass [20]; three weeks after application
  H: Italian ryegrass, herbicidal effect: 3 (mortality of at least 40% and less than 70%)
Barnyardgrass [21]; three weeks after application
  A: barnyardgrass, herbicidal effect: 5 (mortality of 90% or above (nearly complete death))
Beadstraw [22]; three weeks after application
  O: beadstraw, herbicidal effect: 4 (mortality of at least 70% and less than 90%)
Common chickweed [23]; three weeks after application
  N: common chickweed, herbicidal effect: 4 (mortality of at least 70% and less than 90%)
Common lambsquater [24]; three weeks after application
  L: common lambsquater, herbicidal effect: 2 (mortality of at least 20% and less than 40%)
Common ragweed [25]; three weeks after application
  J: common ragweed, herbicidal effect: 4 (mortality of at least 70% and less than 90%)
Giant foxtail [26]; three weeks after application
  E: giant foxtail, herbicidal effect: 3 (mortality of at least 40% and less than 70%)
Large crabgrass [27]; three weeks after application
  D: large crabgrass, herbicidal effect: 4 (mortality of at least 70% and less than 90%)
Posumbu knotweed [28]; three weeks after application
  M: posumbu knotweed, herbicidal effect: 3 (mortality of at least 40% and less than 70%)
Redroot pigweed [29]; three weeks after application
  K: redroot pigweed, herbicidal effect: 2 (mortality of at least 20% and less than 40%)
Velvetleaf [30]; three weeks after application
  I: velvetleaf, herbicidal effect: 3 (mortality of at least 40% and less than 70%)
Water foxtail [31]; three weeks after application
  G: water foxtail, herbicidal effect: 5 (mortality of 90% or above (nearly complete death))
Wild oat [32]; three weeks after application
  F: wild oat, herbicidal effect: 1 (mortality of at least 5% and less than 20%)

## CCOC(=O)N(c1ccccc1CN1COCN(CC)C1=O)S(=O)(=O)C(F)(F)F [IV-6]
Barnyardgrass [1]
  A: barnyardgrass, herbicidal effect (evaluation scale 0-5): 5 (mortality of 90% or above (nearly complete death))
Bulrush [2]
  B: bulrush, herbicidal effect (evaluation scale 0-5): 5 (mortality of 90% or above (nearly complete death))
Ducksalad [3]
  C: ducksalad, herbicidal effect (evaluation scale 0-5): 5 (mortality of 90% or above (nearly complete death))
Transplanted rice
  a: transplanted rice, effect on crop (evaluation scale 0-5): 0 (mortality of less than 5% (almost ineffective))
Barnyardgrass [4]
  A: barnyardgrass, herbicidal effect (evaluation scale 0-5): 5 (mortality of 90% or above (nearly complete death))
Bulrush [5]
  B: bulrush, herbicidal effect (evaluation scale 0-5): 5 (mortality of 90% or above (nearly complete death))
Ducksalad [6]
  C: ducksalad, herbicidal effect (evaluation scale 0-5): 5 (mortality of 90% or above (nearly complete death))
Italian ryegrass [7]
  herbicidal effect, H: Italian ryegrass: 0 (mortality of less than 5% (almost ineffective))
Barnyardgrass [8]
  herbicidal effect, A: barnyardgrass: 5 (mortality of 90% or above (nearly complete death))
Beadstraw [9]
  herbicidal effect, O: beadstraw: 4 (mortality of at least 70% and less than 90%)
Common chickweed [10]
  herbicidal effect, N: common chickweed: 4 (mortality of at least 70% and less than 90%)
Common lambsquater [11]
  herbicidal effect, L: common lambsquater: 0 (mortality of less than 5% (almost ineffective))
Common ragweed [12]
  herbicidal effect, J: common ragweed: 0 (mortality of less than 5% (almost ineffective))
Giant foxtail [13]
  herbicidal effect, E: giant foxtail: 5 (mortality of 90% or above (nearly complete death))
Large crabgrass [14]
  herbicidal effect, D: large crabgrass: 5 (mortality of 90% or above (nearly complete death))
Posumbu knotweed [15]
  herbicidal effect, M: posumbu knotweed: 0 (mortality of less than 5% (almost ineffective))
Redroot pigweed [16]
  herbicidal effect, K: redroot pigweed: 1 (mortality of at least 5% and less than 20%)
Velvetleaf [17]
  herbicidal effect, I: velvetleaf: 5 (mortality of 90% or above (nearly complete death))
Water foxtail [18]
  herbicidal effect, G: water foxtail: 5 (mortality of 90% or above (nearly complete death))
Wild oat [19]
  herbicidal effect, F: wild oat: 0 (mortality of less than 5% (almost ineffective))
Italian ryegrass [20]; [33]
  H: Italian ryegrass, herbicidal effect: 2 (mortality of at least 20% and less than 40%)
Barnyardgrass [21]; [33]
  A: barnyardgrass, herbicidal effect: 4 (mortality of at least 70% and less than 90%)
Beadstraw [22]; [33]
  O: beadstraw, herbicidal effect: 4 (mortality of at least 70% and less than 90%)
Common chickweed [23]; [33]
  N: common chickweed, herbicidal effect: 4 (mortality of at least 70% and less than 90%)
Common lambsquater [24]; [33]
  L: common lambsquater, herbicidal effect: 3 (mortality of at least 40% and less than 70%)
Common ragweed [25]; [33]
  J: common ragweed, herbicidal effect: 3 (mortality of at least 40% and less than 70%)
Giant foxtail [26]; [33]
  E: giant foxtail, herbicidal effect: 4 (mortality of at least 70% and less than 90%)
Large crabgrass [27]; [33]
  D: large crabgrass, herbicidal effect: 4 (mortality of at least 70% and less than 90%)
Posumbu knotweed [28]; [33]
  M: posumbu knotweed, herbicidal effect: 0 (mortality of less than 5% (almost ineffective))
Redroot pigweed [29]; [33]
  K: redroot pigweed, herbicidal effect: 0 (mortality of less than 5% (almost ineffective))
Velvetleaf [30]; [33]
  I: velvetleaf, herbicidal effect: 5 (mortality of 90% or above (nearly complete death))
Water foxtail [31]; [33]
  G: water foxtail, herbicidal effect: 5 (mortality of 90% or above (nearly complete death))
Wild oat [32]; [33]
  F: wild oat, herbicidal effect: 0 (mortality of less than 5% (almost ineffective))
